The values below come from US20250152574A1 (BIOGEN MA INC., priority 2022, published 2025).

What is called IC50 is the concentration that gives 50% inhibition. A high value points to lower potency.

The test has as its target T1, EBP (Homo sapiens, UniProt Q15125).
T1 construct: HEK293T cells were utilized as the source of EBP enzyme; endogenous in cells; host or cells: HEK293T
As to the kind of experiment: EBP Functional Assay (EBP immunoaffinity LC-MS assay). The test is classed as biochemical. The settings on record: HEK293T cells as source of EBP enzyme; substrate zymosterol-d5, 37° C. for 4 h; percent conversion to dehydrolathosterol-d5 by LC-APCI MRM MS. Here is the method: The EBP immunoaffinity (IA) LC-MS assay measures the potency of small molecule inhibitors of EBP by quantifying their concentration-dependent changes in the enzyme's substrate and product using liquid chromatography atmospheric pressure chemical ionization multiple reaction monitoring mass spectrometry (LC-APCI MRM MS). HEK293T cells were utilized as the source of EBP enzyme. The enzyme was incubated with the small molecule inhibitors at variable concentrations for 30 min. Deuterated form of EBP substrate, zymosterol-d5 (Avanti Polar Lipids, Cat #700068P-1 mg), was then added and the plate was incubated at 37° C. for 4 h. Finally, the sterol isomers were extracted and injected to LC-APCI MRM MS. MRM transition used for the quantification for both zymosterol and […] (substrate and product of EBP enzymatic reaction, respectively) is 372.3-203.2, CE 30 and DP 80 in positive ion mode. Percent conversion of the zymosterol-d5 to dehydrolathosterol-d5 was used to derive IC50 curves. Tasin-1 (1′-[(4-Methoxyphenyl)sulfonyl]-4-methyl-1,4′-bipiperidine, CAS 792927-06-1) was used as the reference small molecule inhibitor.
Percent conversion versus the compound concentration data were fit to the following 4-parameter logistic model to generate IC50 curves: […]

T1 sequence (Q15125 whole entry): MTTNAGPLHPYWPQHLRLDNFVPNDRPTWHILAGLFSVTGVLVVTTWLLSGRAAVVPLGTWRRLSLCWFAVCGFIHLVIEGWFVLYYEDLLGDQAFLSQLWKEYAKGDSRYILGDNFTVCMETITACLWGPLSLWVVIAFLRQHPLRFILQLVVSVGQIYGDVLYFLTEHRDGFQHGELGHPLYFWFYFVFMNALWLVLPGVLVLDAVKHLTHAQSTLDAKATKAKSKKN

On to `COCCNC1COC2(CCN(S(=O)(=O)c3cc(C4CC4)nn3C)CC2)C1` (stereo not shown) [Example 59, 8-((3-Cyclopropyl-1-methyl-1H-pyrazol-5-yl)sulfonyl)-N-(2-methoxyethyl)-1-oxa-8-azaspiro[4.5]decan-3-amine], for which the IC50 lay within 250 to 1500 nM.

Turning to `Cc1cc(S(=O)(=O)N2CCC3(CC[C@@H](N4CC5(COC5)C4)C3)CC2)n(C)n1` (single isomer, unassigned) [Example 68a], the IC50 was 100 to 250 nM.

On to `O=S(=O)(c1ccc(OC(F)F)cc1)N1CCC2(CCC(N3CCOCC3)C2)CC1` (stereo not shown) [Example 23, 4-(8-((4-(Difluoromethoxy)phenyl)sulfonyl)-8-azaspiro[4.5]decan-2-yl)morpholine], for which the IC50 was 100 to 250 nM. The result for `O=S(=O)(c1ccc(OC(F)F)cc1)N1CCC2(CC1)CC(N1CC3(CCOC3)C1)CO2` (stereo not shown) [Example 69, 8-((4-(Difluoromethoxy)phenyl)sulfonyl)-3-(6-oxa-2-azaspiro[3.4]octan-2-yl)-1-oxa-8-azaspiro[4.5]decane] reads 250 to 1500 nM; that for `N#Cc1ccc(F)c(S(=O)(=O)N2CCC3(CC2)CC(N2CC4(COC4)C2)CO3)c1` (stereo not shown) [Example 46, 3-((3-(2-Oxa-6-azaspiro[3.3]heptan-6-yl)-1-oxa-8-azaspiro[4.5]decan-8-yl)sulfonyl)-4-fluorobenzonitrile], 250 to 1500 nM; that for `COCCNC1COC2(CCN(S(=O)(=O)c3cc(C)cnc3OC)CC2)C1` (stereo not shown) [Example 65, 8-((2-Methoxy-5-methylpyridin-3-yl)sulfonyl)-N-(2-methoxyethyl)-1-oxa-8-azaspiro[4.5]decan-3-amine], 100 to 250 nM. As for `COc1ncc(Cl)cc1S(=O)(=O)N1CCC2(CC1)CC(N1CC3(COC3)C1)CO2` (stereo not shown) [Example 62, 8-((5-Chloro-2-methoxypyridin-3-yl)sulfonyl)-3-(2-oxa-6-azaspiro[3.3]heptan-6-yl)-1-oxa-8-azaspiro[4.5]decane], the figure is 250 to 1500 nM; as for `N#Cc1ccc(S(=O)(=O)N2CCC3(CC2)CC(N2CC4(COC4)C2)CO3)c(Cl)c1` (stereo not shown) [Example 9], 250 to 1500 nM. The result for `COCCNC1COC2(CCN(S(=O)(=O)c3ccc(C)cc3C)CC2)C1` (stereo not shown) [Example 116, 8-((2,4-dimethylphenyl)sulfonyl)-N-(2-methoxyethyl)-1-oxa-8-azaspiro[4.5]decan-3-amine] reads 250 to 1500 nM; that for `Cn1nc(C(F)(F)F)cc1S(=O)(=O)N1CCC2(CC1)CC(N1CCOCC1)CO2` (single isomer, unassigned) [Example 7, (R)- or (S)-8-((1-methyl-3-(trifluoromethyl)-1H-pyrazol-5-yl)sulfonyl)-3-morpholino-1-oxa-8-azaspiro[4.5]decane], 250 to 1500 nM.

In turn, `O=S(=O)(c1ccc(F)cc1)N1CCC2(CCC(N3CC4(COC4)C3)C2)CC1` (stereo not shown) [Example 12] came in with an IC50 of less than 100 nM. With `CCn1ncc(S(=O)(=O)N2CCC3(CCC(N4CC5(COC5)C4)C3)CC2)n1` (stereo not shown) [Example 111], the IC50 fell in the range of 250 to 1500 nM. As to `O=S(=O)(c1ccc(F)cc1)N1CCC2(CC1)CC(N1CC3(COC3)C1)CO2` (stereo not shown) [Example 8], the IC50 lay in the range of 250 to 1500 nM. As for `N#Cc1cc(F)cc(S(=O)(=O)N2CCC3(CC2)CC(NCC2CCOCC2)CO3)c1` (stereo not shown) [Example 98, 3-fluoro-5-((3-(((tetrahydro-2H-pyran-4-yl)methyl)amino)-1-oxa-8-azaspiro[4.5]decan-8-yl)sulfonyl)benzonitrile], the IC50 lay within 250 to 1500 nM. The result for `O=S(=O)(c1ccc(OC2CC2)cn1)N1CCC2(CCC(N3CCOCC3)C2)CC1` (stereo not shown) [Example 32, 4-(8-((5-Cyclopropoxypyridin-2-yl)sulfonyl)-8-azaspiro[4.5]decan-2-yl)morpholine] reads 250 to 1500 nM; that for `COc1ccc(S(=O)(=O)N2CCC3(CCC(N4CC5(COC5)C4)C3)CC2)cc1F` (stereo not shown) [Example 10], 100 to 250 nM.

The compound `COc1ncc(S(=O)(=O)N2CCC3(CCC(N4CC5(COC5)C4)C3)CC2)cc1Cl` (stereo not shown) [Example 106] registered an IC50 of less than 100 nM. `COCCNC1COC2(CCN(S(=O)(=O)c3cc(C#N)ccc3F)CC2)C1` (stereo not shown) [Example 44, 4-Fluoro-3-((3-((2-methoxyethyl)amino)-1-oxa-8-azaspiro[4.5]decan-8-yl)sulfonyl)benzonitrile] gave an IC50 of 250 to 1500 nM. As for `Cc1nc(Cl)ccc1S(=O)(=O)N1CCC2(CC1)CC(N1C[C@H]3C[C@@H]1CO3)C2` [Example 94, (1R,4R)-5-(7-((6-chloro-2-methylpyridin-3-yl)sulfonyl)-7-azaspiro[3.5]nonan-2-yl)-2-oxa-5-azabicyclo[2.2.1]heptane], the figure is less than 100 nM.

Regarding `[2H]C([2H])([2H])N(CCOC)C1COC2(CCN(S(=O)(=O)c3cc(C)cnc3OC)CC2)C1` (stereo not shown) [Example 66, 8-((2-Methoxy-5-methylpyridin-3-yl)sulfonyl)-N-(2-methoxyethyl)-N-(methyl-d3)-1-oxa-8-azaspiro[4.5]decan-3-amine], the IC50 was 250 to 1500 nM.

As to `N#Cc1cccc(S(=O)(=O)N2CCC3(CCC(N4CC5(COC5)C4)C3)CC2)c1F` (stereo not shown) [Example 104], the IC50 was less than 100 nM. As for `Cn1nc(C2CC2)cc1S(=O)(=O)N1CCC2(CC1)CC(N1CC3(COC3)C1)CO2` (stereo not shown) [Example 56, 8-((3-Cyclopropyl-1-methyl-1H-pyrazol-5-yl)sulfonyl)-3-(2-oxa-6-azaspiro[3.3]heptan-6-yl)-1-oxa-8-azaspiro[4.5]decane], the IC50 fell in the range of 100 to 250 nM. The result for `Cc1cc(S(=O)(=O)N2CCC3(CC2)CC(N2CCC4(CCOC4)C2)CO3)n(C)n1` (stereo not shown) [Example 29, 8-((1,3-Dimethyl-1H-pyrazol-5-yl)sulfonyl)-3-(2-oxa-7-azaspiro[4.4]nonan-7-yl)-1-oxa-8-azaspiro[4.5]decane] reads 250 to 1500 nM; that for `O=S(=O)(c1coc(C(F)(F)F)c1)N1CCC2(CCC(N3CC4(COC4)C3)C2)CC1` (stereo not shown) [Example 101, 6-(8-((5-(trifluoromethyl)furan-3-yl)sulfonyl)-8-azaspiro[4.5]decan-2-yl)-2-oxa-6-azaspiro[3.3]heptane], less than 100 nM; that for `Cc1ccc(F)c(S(=O)(=O)N2CCC3(CC2)CC(N2CCOCC2)CO3)c1` (stereo not shown) [Example 18, 8-((2-Fluoro-5-methylphenyl)sulfonyl)-3-morpholino-1-oxa-8-azaspiro[4.5]decane], 100 to 250 nM.

`O=S(=O)(c1cc2cccnc2cc1F)N1CCC2(CCC(N3CCOCC3)C2)CC1` (stereo not shown) [Example 31, 4-(8-((7-fluoroquinolin-6-yl)sulfonyl)-8-azaspiro[4.5]decan-2-yl)morpholine] gave an IC50 of 100 to 250 nM. With `O=S(=O)(c1cc(C(F)F)nn1C1CC1)N1CCC2(CC1)CC(N1CC3(COC3)C1)C2` [Example 123, 6-(7-((1-cyclopropyl-3-(difluoromethyl)-1H-pyrazol-5-yl)sulfonyl)-7-azaspiro[3.5]nonan-2-yl)-2-oxa-6-azaspiro[3.3]heptane], the IC50 is less than 100 nM. As to `COC1CN(C2COC3(CCN(S(=O)(=O)c4cnc(C5CC5)s4)CC3)C2)C1` (stereo not shown) [Example 55, 8-((2-Cyclopropylthiazol-5-yl)sulfonyl)-3-(3-methoxyazetidin-1-yl)-1-oxa-8-azaspiro[4.5]decane], the IC50 was 250 to 1500 nM. The compound `COc1ccc(S(=O)(=O)N2CCC3(CCC(N4CC(O)C4)C3)CC2)c(C)n1` (stereo not shown) [Example 99, 1-(8-((6-methoxy-2-methylpyridin-3-yl)sulfonyl)-8-azaspiro[4.5]decan-2-yl)azetidin-3-ol] registered an IC50 of less than 100 nM. The result for `Cn1nc(C(F)F)cc1S(=O)(=O)N1CCC2(CC1)CC(N1CC3(COC3)C1)C2` [Example 122, 6-(7-((3-(difluoromethyl)-1-methyl-1H-pyrazol-5-yl)sulfonyl)-7-azaspiro[3.5]nonan-2-yl)-2-oxa-6-azaspiro[3.3]heptane] reads less than 100 nM; that for `Cc1ccc(S(=O)(=O)N2CCC3(CCC(N4CC5(COC5)C4)C3)CC2)cc1C#N` (stereo not shown) [Example 128, 5-((2-(2-oxa-6-azaspiro[3.3]heptan-6-yl)-8-azaspiro[4.5]decan-8-yl)sulfonyl)-2-methylbenzonitrile], less than 100 nM.

`N#Cc1cc(F)cc(S(=O)(=O)N2CCC3(CC[C@@H](N4CC5(COC5)C4)C3)CC2)c1` (single isomer, unassigned) [Example 85a] came in with an IC50 of 100 to 250 nM.

Regarding `Cn1nc(C2CC2)cc1S(=O)(=O)N1CCC2(CC1)C[C@@H](N1CC3(COC3)C1)CO2` (single isomer, unassigned) [Example 57a], the IC50 is 250 to 1500 nM.

The compound `COc1ccc(S(=O)(=O)N2CCC3(CC2)CC(N(C)C2CC4(COC4)C2)CO3)c(F)c1` (stereo not shown) [Example 136, 8-((2-fluoro-4-methoxyphenyl)sulfonyl)-N-methyl-N-(2-oxaspiro[3.3]heptan-6-yl)-1-oxa-8-azaspiro[4.5]decan-3-amine] came in with an IC50 of 100 to 250 nM. `N#Cc1cccc(S(=O)(=O)N2CCC3(CCC(N4CC5(COC5)C4)C3)CC2)c1` (stereo not shown) [Example 11] showed an IC50 of 100 to 250 nM. As for `N#Cc1ccc(F)c(S(=O)(=O)N2CCC3(CC2)CC(NC2CCC(F)(F)CC2)CO3)c1` (stereo not shown) [Example 48, 3-((3-((4,4-Difluorocyclohexyl)amino)-1-oxa-8-azaspiro[4.5]decan-8-yl)sulfonyl)-4-fluorobenzonitrile], the figure is 100 to 250 nM. In turn, `O=S(=O)(c1ccc(OC(F)F)cc1)N1CCC2(CC[C@@H](N3C[C@H]4C[C@@H]3CO4)C2)CC1` (single isomer, unassigned) [Example 86a] yielded an IC50 of less than 100 nM.
